Data reported in patent US20140066444A1, “Method of Treating Cancer” (Exelixis, Inc., priority 2010, published 2014).

What was measured:
[1] = tested on: metastatic castration-resistant prostate cancer (CRPC) with bone metastases; test: case studies: metastatic CRPC patients treated with Compound 1; assay type: in vivo, human; conditions: three metastatic CRPC patients
Source text: Bone metastases are present in 90% of patients with castration-resistant prostate cancer (CRPC), causing significant morbidity and mortality.

oral bioavailability = conditions: in vivo
[2] = tested on: endothelial cells and tumor cells; test: induction of apoptosis
xenograft tumor models = test: xenograft tumor models
MET and VEGFR signaling = test: suppression of MET and VEGFR signaling
[3] = tested on: pancreatic neuroendocrine tumor model; test: murine pancreatic neuroendocrine tumor model
[4] = gravimetric vapor sorption (GVS) study; assay type: physicochemical; conditions: 25° C. and 90% humidity
Description: A gravimetric vapor sorption (GVS) study was run using a standard procedure. Samples were run on a dynamic vapor sorption analyzer (Surface Measurement Systems) running DVSCFR software. Sample sizes were typically 10 mg. A moisture adsorption desorption isotherm was performed as outlined below. The standard isotherm experiment, performed at 25° C., is a two-cycle run, starting at 40% RH, increasing humidity to 90% RH, decreasing humidity to 0% RH, increasing humidity again to 90% RH, and finally decreasing humidity to 0% RH in 10% RH intervals.

Compound	bone lesions [1]	bone pain [1]	measurable disease [1]	total serum alkaline phosphatase (tALP) levels [1]	oral bioavailability (oral bioavailability)	apoptosis of endothelial cells and tumor cells [2]	tumor regression (xenograft tumor models)	MET and VEGFR signaling (MET and VEGFR signaling)	overall survival [3]	tumor invasiveness and metastasis [3]	weight gain (GVS) [4] [%]
COc1cc2c(Oc3ccc(NC(=O)C4(C(=O)Nc5ccc(F)cc5)CC4)cc3F)ccnc2cc1OCCCN1CCOCC1 [Compound 1]	near complete resolution of bone lesions	marked reduction	reduction in measurable disease	marked reduction	orally bioavailable	rapidly induces apoptosis	causes tumor regression	suppresses	substantially improves	significantly reduces	–
COc1cc2c(Oc3ccc(NC(=O)C4(C(=O)Nc5ccc(F)cc5)CC4)cc3F)ccnc2cc1OCCCN1CCOCC1.O [crystalline Compound 1, N-[3-fluoro-4-({6-(methyloxy)-7-[(3-morpholin-4-ylpropyl)oxy]quinolin-4-yl}oxy)phenyl]-N′-(4-fluorophenyl)cyclopropane-1,1-dicarboxamide crystalline hydrate]	–	–	–	–	–	–	–	–	–	–	2.5
